Experimental data as given in patent US12624068B2, “Exon skipping by peptide nucleic acid derivatives” (OliPass Corporation, priority 2016, dated 2026).
[C(1O2)] = modified PNA monomer acting as cytosine, C(pOq) type, 1O2; [A(6)] = modified PNA monomer acting as adenine, A(p) type, p=6; [G(6)] = modified PNA monomer acting as guanine, G(p) type, p=6; {Fethoc} = N-terminal Fethoc cap; {NH2} = C-terminal amide

Experiments:
[1] = tested on: SNAP25 protein; assay: SNAP25 IHC in skin of mice after topical administration; assay type: in vivo, C57BL/6 mice; settings: topical 1, 10 or 100 fM solution, twice per day Days 0 to 4
Protocol: “SNAP-ASO 1” is a 16-mer ASO fully complementary to the 3′ splice site spanning the junction of intron 6 and exon 7 in the mouse SNAP25 pre-mRNA read out from the mouse genomic DNA [accessed from NCBI Reference Sequence: NC_000068]. “SNAP-ASO 1” was evaluated for its ability to inhibit the expression of SNAP25 protein in the skin upon topical administration as follows.
[Hair Cut and Grouping] In Day 0, 8 female C57BL/6 mice (5 weeks old) were anesthetized with zoletil/rompun, and the hair in the back (ca 3 cm×4 cm) was cut with a clipper. The mice were randomly assigned into 4 groups, i.e., no ASO treatment group (negative control) and 3 treatment groups of 1 fM, 10 fM and 100 fM “SNAP-ASO 1”. (2 animals per group)
[Topical Administration] Topical solutions were prepared by serially diluting an aqueous stock solution of “SNAP-ASO 1” in 30% (v/v) aqueous ethanol supplemented with 3% (v/v) glycerin to 0, 1, 10 and 100 fM “SNAP-ASO 1”. […]
[SNAP25 IHC] Skin samples were cryo-sectioned and immunostained in series with a primary anti-SNAP25 antibody (Cat. Number ab41455, Abcam) at 1:200 dilution, with a secondary anti-IgG (Cat Number BA-1100, Vector) at 1:200 dilution, and then with Dylight 594-streptavidin (Cat Number SA-5594, Vector, CA, USA) at 1:200 dilution for red fluorescence tagging. […]

[2] = tested on: SNAP25 protein; assay: SNAP25 western blot in PC12 cells; assay type: cell-based, rat; settings: 100 or 1,000 zM, 48 hours or 72 hours
Protocol: “SNAP-ASO 3” was evaluated for its ability to inhibit the expression of the SNAP25 protein in PC12 cells as follows.
PC12 cells were grown in 60 mm culture dish containing 5 mL culture medium, and treated with “SNAP-ASO 3” at 0 zM (negative control), 1 zM, 10 zM, 30 zM, 100 zM, 300 zM, 1 aM, 3 aM or 10 aM for 48 hours. There were 4 culture dishes of the negative control to compensate for potential technical artifacts during the western blot analysis.
[Cell Lysis] Then the cells were subjected to lysis on ice with 200 μL 1×RIPA buffer (Cat. Number 9806, Cell Signaling Tech) supplemented with 1% SDS and 1× proteinase inhibitors cocktail (cOmplete Mini, Roche). The lysates were collected in 1.5 mL e-tube, mixed with 100 μL 5× sample buffer, and boiled for 5 min.
[Western Blot] The lysates were subjected to electrophoretic separation on a 4-15% TGX-PAGE gradient gel (Cat. Number 456-1086, Bio-Rad) and then transferred onto a 0.45 μm PVDF membrane. The membrane was probed with an anti-SNAP25 antibody (Cat. Number S9684, Sigma) and an anti-β-actin antibody (Cat. Number A3845, Sigma).
“SNAP-ASO 1” was evaluated for its ability to inhibit the SNAP25 protein expression in PC12 cells as described in “SNAP25 Example 4”, unless noted otherwise. PC12 cells were treated with “SNAP-ASO 1” at 0 (negative control), 100 or 1,000 zM either for 48 hours or for 72 hours. […]

[3] = tested on: full-length SNAP25 mRNA; assay: SNAP25 nested qPCR in PC12 cells; assay type: cell-based, rat
Protocol: [Cell Culture & ASO Treatment] PC12 cells grown in 60 mm culture dish containing 5 mL culture medium were treated with “SNAP-ASO 3” at 0 (negative control), 10, 100 or 1,000 zM. (2 culture dishes per ASO concentration) [RNA Extraction & cDNA Synthesis by One-step RT-PCR] Following an incubation with “SNAP-ASO 3” for 42 hours, the cells were treated 100 μg/mL cycloheximide for another 6 hours to freeze the ribosomal translation. Then total RNA was extracted from cells using “Universal RNA Extraction Kit” (Cat. Number 9767, Takara) according to the manufacturer's instructions. […] NO: 130); and SNAP-exon 14_reverse: (5'→3') […] [Nested qPCR Amplification] […] NO: 132); and SNAP-exon 8q_reverse: (5'→3') […] The qPCR reaction was followed with a Taqman probe of [(5'→3') 5,6-[…] NO: 134)] targeting the junction of exon 7 and exon 8 in order to quantify the full-length SNAP25 mRNA.

[4] = tested on: 10-mer complementary DNA; assay: Tm between PNA derivatives and 10-mer complementary DNA (N- or C-terminal); assay type: binding; settings: uncorrected
How it was run: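 4 μM 10-mer PNA with 4 μM complementary 10-mer DNA in pH 7.16 buffer (10 mM sodium phosphate, 100 mM NaCl) was heated at 90 °C for a minute, slowly cooled to ambient, then Tm measured by UV absorbance at 260 nm.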

[5] = tested on: TYR protein; assay: TYR western blot in B16F10 cells; assay type: cell-based, mouse; settings: 10 zM to 10 aM, 24 hours
Protocol: “TYR-ASO 4” was evaluated for its ability to inhibit the expression of TYR protein in B16F10 cells as described below.
B16F10 cells grown in 60 mm culture dish containing 5 mL culture medium were treated with “TYR-ASO 4” for 24 hours at 0 zM (negative control), 10 zM, 100 zM, 1 aM or 10 aM, and subjected to lysis with 200 μL 1× cell lysis buffer (Cat. No. 9803, Cell Signaling Tech) supplemented with 1× protease inhibitors cocktail (Cat. No. P8340, Sigma). 200 μL of each lysate was mixed with 100 μL 5× sample buffer, and boiled at 100° C. for 5 min. 20 μL of each lysate was subjected to electrophoretic separation on a 4-15% gradient TGX gel (Cat No. 456-1086, Bio-Rad), and protein transfer onto a 0.45 μm PVDF membrane. The membrane was probed with an anti-TYR antibody (Cat. No. 9319, Cell Signaling Tech) and an anti-3-actin antibody (Cat. No. a3845, Sigma).

[6] = tested on: melanogenesis in B16F10 cells; assay: Melanin content (melanogenesis) in B16F10 cells; assay type: cell-based, mouse; settings: 1 to 1,000 aM, 24 hours
Protocol: “TYR-ASO 4” was evaluated for its ability to inhibit the melanogenesis in B16F10 cells as described below.
B16F10 cells grown in 60 mm culture dish containing 5 mL culture medium were treated either with “TYR-ASO 4” at 0 (negative control) or 1 to 1,000 aM, or with 10 or 100 μg/mL arbutin as a positive control. (2 culture dishes per dose) 24 hours later, the cells were subjected to lysis with 200 μL 1N NaOH. Each lysate was collected in 1.5 mL e-tube, and kept overnight at room temperature. The melanin content in each lysate was determined by absorbance at 475 nm on an ELISA reader. The experiment was repeated four times using cells at different passage. The four sets of the melanin content data were pooled for statistical analysis by student's t-test against the melanin content without treatment (negative control).

[7] = tested on: mouse TYR pre-mRNA; assay: TYR nested PCR for exon skipping in B16F10 cells; assay type: cell-based; settings: 1 to 1,000 aM, 5 hours
Protocol: “TYR-ASO 4” was evaluated for its ability to induce the skipping of the mouse TYR exon 2 in B16F10 melanoma cells as follows. “TYR-ASO 4” may serve as a good surrogate compound for “TYR-ASO 1” which is fully complementary to the human TYR pre-mRNA. [Cell Culture & ASO Treatment] B16F10 mouse melanoma cells (Cat. Number CRL-6475, ATCC) were maintained in DMEM (Dulbecco's modified Eagle's essential minimum medium) supplemented with 10% FBS, 1% streptomycin/penicillin, and 0.01 mg/ml bovine insulin. B16F10 cells grown in 60 mm culture dish containing 5 mL DMEM were incubated for 5 hours with “TYR-ASO 4” at 0 (negative control), 1, 10, 100 or 1000 aM. [RNA Extraction & cDNA Synthesis by One-step PCR] Total RNA was extracted using “Universal RNA Extraction Kit” (Cat. Number 9767, Takara) according to the manufacturer's instructions. […] NO: 142); and TYR-exon 4_reverse: (5'→3') […] [Nested PCR Amplification] […] NO: 144); and TYR-exon 4n_reverse: (5'→3') […] [Identification of Exon Skipping Products] The PCR products were subjected to electrophoretic separation on a 2% agarose gel. The bands of target size were collected and analyzed by Sanger Sequencing.

[8] = tested on: full-length TYR mRNA; assay: TYR nested qPCR in B16F10 cells; assay type: cell-based, mouse; settings: 1 to 1,000 aM
Protocol: [Cell Culture & ASO Treatment] B16F10 cells grown in 60 mm culture dish containing 5 mL culture medium were treated with “TYR-ASO 4” at 0 (negative control), 1, 10, 100 or 1000 aM. (2 culture dishes per dose)
[RNA Extraction & cDNA Synthesis by One-step PCR] Total RNA was extracted and subjected to cDNA synthesis as described in “TYR Example 1”.
[Nested qPCR Amplification]
[Statistical Analysis] The nested qPCR experiment was repeated independently four times, and individual mRNA levels from each experiment were normalized against the mRNA level without ASO treatment. The mRNA levels obtained from all the 4 separate experiments were pooled for statistical analysis by student's t-test. Thus the number of RNA samples is 8 per ASO concentration.

[9] = tested on: full-length TYR mRNA; assay: TYR nested qPCR in human primary epidermal melanocytes; assay type: cell-based; settings: 1 zM to 10 aM, 5 hours
Protocol: [Cell Culture & ASO Treatment] Primary epidermal melanocytes (Cat. Number PCS-200-013, ATCC) cells were maintained in Dermal Cell Basal Medium (Cat Number PCS-200-030, ATCC) supplemented with Adult Melanocyte Growth Kit Component (Cat. Number PCS-200-042, ATCC). Melanocytes grown in 60 mm culture dish containing 5 mL culture medium were treated with “TYR-ASO 1” at 0 zM (negative control), 1 zM, 100 zM, or 10 aM. (3 culture dishes per concentration) [RNA Extraction & cDNA Synthesis by One-step PCR] Following an incubation with “TYR-ASO 1” for 5 hours, total RNA was extracted using “RNeasy Mini Kit” (Cat. Number 74106, Qiagen) according to the manufacturer's instructions. […] NO: 147); and TYR-exon 5_reverse: (5'→3') […] [Nested PCR Amplification] […] NO: 149); and TYR-exon 3n_reverse: (5'→3') […] NO: 150)] against a Taqman probe [(5'→3') 5,6-[…] NO: 151)].

Fethoc-A(6)TT-TG(6)T-TA(6)C-CC(1O2)T-GG(6)G-A(6)-NH2 (ATTTGTTACCCTGGGA; all peptide nucleic acid (PNA), [A(6)] at 1, 8, 16, [G(6)] at 5, 14, [C(1O2)] at 11, 5' {Fethoc}, 3' {NH2}; peptide nucleic acid written N to C) [SNAP-ASO 1]
SNAP25 protein expression in the muscle layer of skin (IHC) [1]: gradually decreased as the dose was increased | expression of the SNAP25 protein (western blot) [2]: considerably inhibited | decrease of full-length SNAP25 mRNA level (qPCR) ([3]; PC12 cells, 10 zM): ~50% | decrease of full-length SNAP25 mRNA level (qPCR) ([3]; PC12 cells, 100 zM): 40% | decrease of full-length SNAP25 mRNA level (qPCR) ([3]; PC12 cells, 1,000 zM): 70%

Fethoc-CA(5)A-A(5)TG-A(5)TC(1O2)-TG(6)T-G-NH2 (antisense CAAATGATCTGTG; chemistry not fully specified) [TYR-ASO 4]
Tm Value, 10-mer DNA against C-Terminal [4]: 72.0 °C | Tm Value, 10-mer DNA against N-Terminal [4]: 72.0 °C | TYR protein level (western blot) [5]: considerably higher in the lysates of the negative control | decrease of melanin content [6]: ~15% | TYR exon skipping by nested PCR [7]: yielded essentially only the splice variant TYR mRNA lacking exons 2 and 3 | decrease of full-length TYR mRNA level (qPCR) [8]: ~40%

Fethoc-CA(5)G-ACA(5)-ATC(1O2)-TG(6)T-A(5)-NH2 (antisense CAGACAATCTGTA; chemistry not fully specified) [TYR-ASO 1]
Tm Value, 10-mer DNA against C-Terminal [4]: 73.0 °C | Tm Value, 10-mer DNA against N-Terminal [4]: 78.0 °C | decrease of full-length TYR mRNA level (qPCR) [9]: ~30%
